# Data reported in patent US20250339409A1, “USES OF PAN BET INHIBITORS” (VYNE THERAPEUTICS INC., priority 2021, published 2025).
# Several values for one entry are separate records, joined by “and”; a condition that tells them apart may be missing. Equal entries are not always repeated.
# Assays:
# [1] = test system: bleomycin induced pulmonary fibrosis; assay: Bleomycin induced pulmonary fibrosis in mice, nebulized treatment: body weight, weight of whole lung, survival; format: in vivo; conditions: for Predicted (LS) mean diff., % Change Body Weight, Group 2 Bleo/Veh vs. BETi1 group: Two Way ANOVA
# Protocol: Bleomycin, a […], which acts inter alia by induction of DNA strand breaks.
# The Bleomycin induced pulmonary fibrosis in a murine model is used to assess anti-fibrotic and/or anti-inflammatory properties of BETi1 formulations at three concentrations. Fifty C57BL/6 male mice aged 6 to 7 weeks and weighing between 25-30 grams are randomized into five treatment groups (10 mice each): (a) bleomycin induced mice treated with BETi1 at three concentrations (0.06 mg/mL, 0.6 mg/mL and 3 mg/mL); (b) bleomycin induced mice treated with vehicle (control for active) and (c) uninduced mice treated with vehicle (sham) (control for disease).
# To generate the morphological and functional aspects of PF, 50 uL bleomycin sulfate in saline per mouse is intranasally dosed on Day 0 (other than for group 1 sham receiving saline). The bleomycin IU conversion to enzyme units (U) is approximately 2 U/mg. For delivery of 4 U/kg in 50 μL, a solution of 2 U/ml (for 25 g mouse) is prepared in 0.9% NaCl.
# 5 ml of BETi1 solutions at 3 doses, or vehicle and bleomycin concomitantly are delivered once daily for 21 days with a nebulizer based aerosol delivery system (eFlow® rapid Nebuliser System) by inhalation for a period which allows the solutions to be nebulized and up to 2 hours per day. A sham group receives vehicle only. Body weights are recorded on days 1, 7, 14, and 21. Mortality and clinical observations are recorded daily.
# On day 21, mice are euthanized by cervical dislocation and the whole lung is dissected and weighed. The chest is wet with alcohol and large scissors are used to open the ribcage. The lungs are removed with fine scissors and forceps, rinsed with PBS and patted dry on gauze.
# Investigation of the anti-fibrotic properties of BETi1 composition against TGF-β mediated fibrosis was undertaken in a bleomycin induced murine model mimicking IPF in accordance with the protocol set out in Experimental Method R.
# [2] = test system: anti collagen antibodies induced arthritis (ACAIA); assay: ACAIA mice: hot plate withdrawal latency; format: in vivo, Balb/c mice
# Protocol: On days 0, 5 and 11 animals are placed on hot plate apparatus (53±1° C.) and the time until the first response is observed and recorded.
# [3] = Group 5 Bleo/BETi1 3 mg/mL, group mean
# [4] = Group 5 Bleo/BETi1 3 mg/mL, individual animals
structure (smiles),measurement,setting,value
Cn1cc(-c2cccc(O)c2Oc2ccccc2)c2cc[nH]c2c1=O [BETi1],Probability of Survival,"[1]; Group 5 Bleo/BETi1 3 mg/mL, Day Elapsed 20",76.5%
same,"Mean Diff., Weight of Whole lung, Group 2 Bleo/Veh vs. BETi1 group","[1]; Group 5 Bleo/BETi1 3 mg/mL, One Way ANOVA, Dunnett's",0.001901
same,"% change in Body Weight Week 1 Compared to Baseline, mean",[1]; [3],−19.36%
same,"% change in Body Weight week 2 Compared to Baseline, mean",[1]; [3],−20.64%
same,"% change in Body Weight week 3 Compared to Baseline, Mean",[1]; [3],−16.74%
same,% change in Body Weight Week 1 Compared to Baseline,[1]; [4],−26.87% and −23.22% and −36.71% and −15.25% and −13.81% and −12.78% and −17.30% and −34.80% and −28.32% and −27.55% and −24.87% and −34.38% and −26.99% and −11.63% and −10.16% and −15.64% and −21.86%
same,% change in Body Weight week 2 Compared to Baseline,[1]; [4],−11.45% and −36.97% and −40.10% and −20.18% and 1.43% and −7.05% and −22.16% and −38.24% and −34.07% and −20.81% and −42.92% and −8.37% and −1.07% and −7.11% and −20.47%
same,% change in Body Weight week 3 Compared to Baseline,[1]; [4],−5.73% and −37.44% and −21.52% and 1.90% and −7.05% and −24.32% and −46.08% and −37.17% and −17.26% and −3.26% and 2.67% and −4.27% and −18.14%
same,"Mean 2 (group mean), % Change Body Weight","[1]; Week 1, Group 3 Bleo/BETi1 0.06 mg/mL",−25.27%
same,"Mean Diff., % Change Body Weight, Group 2 Bleo/Veh vs. BETi1 group","[1]; Week 1, Group 3 Bleo/BETi1 0.06 mg/mL, One Way ANOVA, Dunnett's",3.162%
same,"Predicted (LS) mean diff., % Change Body Weight, Group 2 Bleo/Veh vs. BETi1 group","[1]; Week 1, Group 3 Bleo/BETi1 0.06 mg/mL, Dunnett's",−0.2812%
same,"Mean 2 (group mean), % Change Body Weight","[1]; Week 1, Group 4 Bleo/BETi1 0.6 mg/mL",−20.16%
same,"Mean Diff., % Change Body Weight, Group 2 Bleo/Veh vs. BETi1 group","[1]; Week 1, Group 4 Bleo/BETi1 0.6 mg/mL, One Way ANOVA, Dunnett's",−1.950%
same,"Predicted (LS) mean diff., % Change Body Weight, Group 2 Bleo/Veh vs. BETi1 group","[1]; Week 1, Group 4 Bleo/BETi1 0.6 mg/mL, Dunnett's",0.1375%
same,"Mean 2 (group mean), % Change Body Weight","[1]; Week 1, Group 5 Bleo/BETi1 3 mg/mL",−22.48%
same,"Mean Diff., % Change Body Weight, Group 2 Bleo/Veh vs. BETi1 group","[1]; Week 1, Group 5 Bleo/BETi1 3 mg/mL, One Way ANOVA, Dunnett's",0.3723%
same,"Predicted (LS) mean diff., % Change Body Weight, Group 2 Bleo/Veh vs. BETi1 group","[1]; Week 1, Group 5 Bleo/BETi1 3 mg/mL, Dunnett's",−0.2048%
same,"Mean 2 (group mean), % Change Body Weight","[1]; Week 2, Group 3 Bleo/BETi1 0.06 mg/mL",−19.98%
same,"Mean Diff., % Change Body Weight, Group 2 Bleo/Veh vs. BETi1 group","[1]; Week 2, Group 3 Bleo/BETi1 0.06 mg/mL, One Way ANOVA, Dunnett's",1.135%
same,"Predicted (LS) mean diff., % Change Body Weight, Group 2 Bleo/Veh vs. BETi1 group","[1]; Week 2, Group 3 Bleo/BETi1 0.06 mg/mL, Dunnett's",0.3375%
same,"Mean 2 (group mean), % Change Body Weight","[1]; Week 2, Group 4 Bleo/BETi1 0.6 mg/mL",−17.12%
same,"Mean Diff., % Change Body Weight, Group 2 Bleo/Veh vs. BETi1 group","[1]; Week 2, Group 4 Bleo/BETi1 0.6 mg/mL, One Way ANOVA, Dunnett's",−1.732%
same,"Predicted (LS) mean diff., % Change Body Weight, Group 2 Bleo/Veh vs. BETi1 group","[1]; Week 2, Group 4 Bleo/BETi1 0.6 mg/mL, Dunnett's",−0.3438%
same,"Mean 2 (group mean), % Change Body Weight","[1]; Week 2, Group 5 Bleo/BETi1 3 mg/mL",−20.64%
same,"Mean Diff., % Change Body Weight, Group 2 Bleo/Veh vs. BETi1 group","[1]; Week 2, Group 5 Bleo/BETi1 3 mg/mL, One Way ANOVA, Dunnett's",1.788%
same,"Predicted (LS) mean diff., % Change Body Weight, Group 2 Bleo/Veh vs. BETi1 group","[1]; Week 2, Group 5 Bleo/BETi1 3 mg/mL, Dunnett's",−0.05257%
same,"Mean 2 (group mean), % Change Body Weight","[1]; Week 3, Group 3 Bleo/BETi1 0.06 mg/mL",−8.830%
same,"Mean Diff., % Change Body Weight, Group 2 Bleo/Veh vs. BETi1 group","[1]; Week 3, Group 3 Bleo/BETi1 0.06 mg/mL, One Way ANOVA, Dunnett's",−4.313%
same,"Predicted (LS) mean diff., % Change Body Weight, Group 2 Bleo/Veh vs. BETi1 group","[1]; Week 3, Group 3 Bleo/BETi1 0.06 mg/mL, Dunnett's",−2.409%
same,"Mean 2 (group mean), % Change Body Weight","[1]; Week 3, Group 4 Bleo/BETi1 0.6 mg/mL",−13.58%
same,"Mean Diff., % Change Body Weight, Group 2 Bleo/Veh vs. BETi1 group","[1]; Week 3, Group 4 Bleo/BETi1 0.6 mg/mL, One Way ANOVA, Dunnett's",0.4395%
same,"Predicted (LS) mean diff., % Change Body Weight, Group 2 Bleo/Veh vs. BETi1 group","[1]; Week 3, Group 4 Bleo/BETi1 0.6 mg/mL, Dunnett's",−0.1629%
same,"Mean 2 (group mean), % Change Body Weight","[1]; Week 3, Group 5 Bleo/BETi1 3 mg/mL",−16.74%
same,"Mean Diff., % Change Body Weight, Group 2 Bleo/Veh vs. BETi1 group","[1]; Week 3, Group 5 Bleo/BETi1 3 mg/mL, One Way ANOVA, Dunnett's",3.600%
same,"Predicted (LS) mean diff., % Change Body Weight, Group 2 Bleo/Veh vs. BETi1 group","[1]; Week 3, Group 5 Bleo/BETi1 3 mg/mL, Dunnett's",0.6601%
same,Hot Plate Change in withdrawal latency (Avg.),"[2]; 0.01 mg/kg IA, Baseline",11.57 s
same,Hot Plate Change in withdrawal latency (Avg.),"[2]; 0.01 mg/kg IA, Day 5",11.86 s
same,Hot Plate Change in withdrawal latency (Avg.),"[2]; 0.01 mg/kg IA, Day 11",12.00 s
same,Hot Plate Change in withdrawal latency (Avg.),"[2]; 0.1 mg/kg IA, Baseline",11.14 s
same,Hot Plate Change in withdrawal latency (Avg.),"[2]; 0.1 mg/kg IA, Day 5",10.43 s
same,Hot Plate Change in withdrawal latency (Avg.),"[2]; 0.1 mg/kg IA, Day 11",9.57 s
same,Hot Plate Change in withdrawal latency (Avg.),"[2]; 1 mg/kg IA, Baseline",11.71 s
same,Hot Plate Change in withdrawal latency (Avg.),"[2]; 1 mg/kg IA, Day 5",11.57 s
same,Hot Plate Change in withdrawal latency (Avg.),"[2]; 1 mg/kg IA, Day 11",11.29 s
same,Hot Plate Change in withdrawal latency (Avg.),"[2]; 10 mg/kg IA, Baseline",10.57 s
same,Hot Plate Change in withdrawal latency (Avg.),"[2]; 10 mg/kg IA, Day 5",12.00 s
same,Hot Plate Change in withdrawal latency (Avg.),"[2]; 10 mg/kg IA, Day 11",11.00 s
